Measured values taken from US8987263B2, “Basic esters of fatty alcohols and their use as anti-inflammatory or immunomodulatory agents” (priority 2002, dated 2015).
Read-outs that look alike come from different tables or passages of the source.

How the values were obtained:
adjuvant arthritis (AA) = conditions: Lewis rats
[1] = test system: experimental autoimmune encephalomyelitis (EAE); conditions: DA rats; 40 mg IV on day of immunization; vs untreated control; FIG. 2
EAE [2] = type: in vivo; conditions: CSJL/F1 mice, GA 5.0 mg/mouse, Compound 3 0.5 mg/mouse
Method: (§1) EAE was tested in CSJL/F1 mice, immunological response was tested in C57BL/J6 mice. Healthy, specific pathogen-free, female CSJLF/1 and male C57BL/J6 mice, were obtained from Harlan Animal Breeding Center, Jerusalem, Israel. The mice were 9-week old at the initiation of the study, weighing 20 g±15%.
(i) The mice were divided into 4 test groups as shown below:
For immunization of group 1, a GA solution in PBS (100 mg/mL) was diluted 1:2 in IFA to yield a final concentration of 50 mg/mL for injection of 5.0 mg/mouse GA (0.1 ml). The GA+IFA mixtures were transferred into a syringe (2.5 mL) connected to a second syringe through a Luer lock bridge and mixed well by transferring the material from one syringe to another for about 10 minutes until the material was well emulsified.
EAE was induced by injecting the encephalitogenic agent consisting of MSCH and commercial CFA containing Mycobacterium tuberculosis H37Ra to the foot-pads of the animals and pertussis toxin IV.
They were weighed before immunization and once a week thereafter until the termination of the study. Ten days after induction of EAE, the mice were examined for EAE clinical signs and scored. The EAE clinical signs were observed and scored from the 9th day post-EAE induction until the termination of the experiment according to the following five-graded scale to assess clinical severity: 0, normal behavior; 1, weight loss; 2, tail weakness; 3, hind legs hypotonia and weakness; 4, hind legs paralysis; 4, severe total paralysis; 5, impaired respiration and/or convulsions and/or full paralysis or death.
Calculation of mortality: The number of sick and dead animals in each group was determined, and the incidence of disease and mortality rate was calculated as follows: […]
Calculation of percent activity: The percentage activity according to mortality was calculated as follows: […]
Calculation of mean duration of disease and onset of disease: The mean duration of the disease and onset of disease expressed in days was calculated.
Calculation of the mean maximal score and percent inhibition: The maximal scores of each of the 10 mice in the test group were summed.
The mean maximal score (MMS) of the group was calculated as follows: […]
The percent inhibition was calculated as follows: […]
Calculation of the mean group score and percent inhibition: The scores of each of the 10 mice in the test group was summed.
The mean group score (GMS) of the group was calculated as follows: […]

[3] = type: in vivo
Method: The mice were scored according to following chart: 0—normal behavior; 1—slight toxic signs (piloerection); 2—moderate toxic signs (partial eye lid closure, hunched posture, hypoactivity, apathy); 3—severe toxic signs (ataxia, convulsions, gasping respiration, paralysis, unconscious); 4—death. Mice were weighed before immunization and on the day of the termination of the study. […] The spleens were weighed and spleen/body weight ratio was calculated.

[4] = test system: delayed-type hypersensitivity (DTH) reaction; assay: Oxazolone-induced DTH skin reaction, mouse ear-swelling test; type: in vivo, BALB/c mice; conditions: for percent inhibition of DTH reaction: read after 24 hours; for reduction of inflammation in the DTH model: 0.5, 1, 2 and 4 mg in 40 μl 30 min after challenge, dexamethazone 2 mg/40 μl, FIG. 5
Method: Delayed-type hypersensitivity (DTH), a localized inflammatory reaction induced by cytokines secreted by certain TH cells when they encounter certain types of antigens, is an established experimental model for skin inflammation.
As a first step, DTH reactions were induced in the skin of 8-week-old female BALB/c mice. The mice were sensitized by topical application of 200 μl of a 2% oxazolone (4-ethoxymethylene-2-phenyl-2-oxazolin-5-one; Sigma, St. Louis, Mo.) solution in acetone/olive oil (4:1, vol/vol) to the shaved abdomen of the mice. Six days after sensitization, one ear of each mouse was challenged by topical application of 20 μl of a 0.5% oxazolone solution.
Mice were induced with DTH as in Example 17. […] In addition, a positive control of dexamethazone (2 mg/40 μl) was administered. A group of DTH induced mice was also treated with (4-Methyl-piperazin-1-yl)-acetic acid ethyl ester HCl (negative control.)

EAE [5] = conditions: Lewis rats
Method: EAE is induced in 7-9 weeks old female Lewis rats by injecting each foot pad with 25 μg of guinea MBP (50 μg total) in CFA (Sigma). The disease develops about 12 days after immunization and is characterized by paralysis of various degrees due to inflammation of the central nervous system. The rats are scored for paralysis on a scale of 0-4, as described above in Example 13.
EAE was induced in 8-week-old female Lewis rats as described in Example 15 above with guinea pig MBP in CFA.
(§2) The rats were scored for EAE on a severity scale of 0-4 as described above.
as §2
Rats were treated with Compound 9 (100 mg/Kg) per os. The rats were scored for EAE on a severity scale of 0-4 as described above.

[6] = test system: Spleen Cells of GA Immumized Mice; assay: IL-2 secretion from spleen cells of immunized mice (ELISA); type: cell-based, C57BL/J6 mice; set-up: IL-2 Secretion from 5 × 10^6 Spleen Cells: unit not given here
Method: as §1
(i) The mice were divided into 6 test groups as shown below:
Mice were immunized 10 days prior to spleen collection.
A solution of GA in PBS (final GA concentration of 1.5 mg/mL, for dose of 75 μg/mouse) was diluted in CFA to yield a final concentration of 0.75 mg/mL for dose of 75 μg/mouse GA. The mixtures (GA+CFA) were transferred into a syringe (2.5 mL) connected to a second syringe through a Luer lock bridge and mixed well by transferring the material from one syringe to another for about 10 minutes until the material is well emulsified.
GA (20 mg vial) was dissolved in PBS to yield 20 mg/mL solution, then further diluted in PBS to yield a final GA concentration of 1.5 mg/mL for dose of 75 μg/mouse. Equal volumes of Compound 3 and GA or PBS for control group were mixed.
Spleens were collected and pooled for each group in sterile RPMI medium. Cells were extracted resuspended in enriched DCCM1 medium and counted. […] Supernatants were collected and tested for levels of cytokines secretion.
(vii) Detection of cytokine secretion in primary cultures from spleens was performed employing ELISA. Cells were activated in-vitro and IL-2 secretion levels were detected using commercial kits according to the provider's instructions.

[7] = 0.2 mg per os every day from EAE induction
[8] = 1 mg per os every day from EAE induction
[9] = 2 mg per os every day from EAE induction
[10] = 10 mg per os every day from EAE induction
[11] = 20 mg per os every day from EAE induction

## CCCCCCCC/C=C\CCCCCCCCOC(=O)CN(C)C [Compound 1, N,N-Dimethylamino-acetic acid octadec-(Z)-9-enyl ester]
Adjuvant arthritis (AA); 40 mg IV on day 0 or on day 14 after onset of AA, FIG. 1
  protection against the inflammation caused by AA (AA score 0-16): could protect the rats against the inflammation caused by AA
[1]
  prevention of paralysis (EAE score 0-4): could prevent the paralysis to a significant degree

## CCCCCCCC/C=C\CCCCCCCCOC(=O)CN1CCN(C)CC1.O=C(O)C(O)C(O)C(=O)O [Compound 3, (4-Methyl-piperazin-1-yl)-acetic acid octadec-(Z)-9-enyl ester tartrate]
EAE [2]
  GMS (group mean score) Value ± S.D.: 3.3 ± 0.6
  MMS (mean maximal score) Value ± S.D.: 4.7 ± 0.5
  Mean Duration: 4.7 ± 0.5 days
EAE [2]; SC immunization 11 days before EAE induction
  Mean onset: 10.3 ± 0.5 days
EAE [2]; vs PBS control
  GMS inhibition (inh.* 3): 3.2%
  MMS inhibition (inh.* 2): .0%
Adjuvant arthritis (AA); 10, 50, 100 or 200 mg SC at day -7 before induction, FIG. 6
  protection against AA: could protect the rats against AA
[3]; Compound 3 50 and 500 μg/mouse, with or without GA 75 μg/mouse
  effect on mice weight: no adverse effect
[3]; Compound 3 with or without GA
  signs of immunosuppression: no signs of immunosuppression
[4]; 1 mg topical on challenged ear 30 min after challenge
  percent inhibition of DTH reaction: 12.5%
[4]; 2 mg topical on challenged ear 30 min after challenge
  percent inhibition of DTH reaction: 8%
EAE [5]; [7]
  % inhibition: 28%
  Mean Clinic Score: 2.1
EAE [5]; [8]
  % inhibition: 28%
  Mean Clinic Score: 2.1
EAE [5]; [9]
  % inhibition: 14%
  Mean Clinic Score: 2.5
EAE [5]; [10]
  % inhibition: 28%
  Mean Clinic Score: 2.1
EAE [5]; [11]
  % inhibition: 41%
  Mean Clinic Score: 1.7
EAE [5]; administered subcutaneously (10-200 mg, day 7 before induction) or orally
  protection against EAE: could protect the rats against EAE
EAE [5]; per os every other day from day of EAE induction (not shown)
  effect on EAE: similarly effective
[6]; Con A as non-specific activator
  effect on non-specific Con-A activation (IL-2): no effect
[6]; GA activator conc. 2.5 (mg/mL), Comp. 3 50 μg/m (GA 75 μg/m where combined)
  IL-2 Secretion from 5 × 10^6 Spleen Cells: UQL
[6]; GA activator conc. 2.5 (mg/mL), Comp. 3 500 μg/m (GA 75 μg/m where combined)
  IL-2 Secretion from 5 × 10^6 Spleen Cells: UQL
[6]; GA activator conc. 25.0 (mg/mL), Comp. 3 50 μg/m (GA 75 μg/m where combined)
  IL-2 Secretion from 5 × 10^6 Spleen Cells: UQL
[6]; GA activator conc. 25.0 (mg/mL), Comp. 3 500 μg/m (GA 75 μg/m where combined)
  IL-2 Secretion from 5 × 10^6 Spleen Cells: 7.9
[6]; activator Con A 2.5 (mg/mL), Comp. 3 50 μg/m (GA 75 μg/m where combined)
  IL-2 Secretion from 5 × 10^6 Spleen Cells: 426.8
[6]; activator Con A 2.5 (mg/mL), Comp. 3 500 μg/m (GA 75 μg/m where combined)
  IL-2 Secretion from 5 × 10^6 Spleen Cells: 426.8
[6]; activator conc. 0, Comp. 3 50 μg/m (GA 75 μg/m where combined)
  IL-2 Secretion from 5 × 10^6 Spleen Cells: UQL
[6]; activator conc. 0, Comp. 3 500 μg/m (GA 75 μg/m where combined)
  IL-2 Secretion from 5 × 10^6 Spleen Cells: UQL
[6]; immunized with Compound 3 without GA, 50 and 500 μg/mouse
  IL-2 secretion from spleen cells in response to GA: not elevated

## CCCCCCCC/C=C\CCCCCCCCOC(=O)c1ccc(CN(C)C)cc1.Cl [Compound 5, 4-dimethylaminomethyl-benzoic acid octadec-(Z)-9-enyl ester HCl]
[4]
  reduction of inflammation in the DTH model: inhibit DTH Skin Reaction

## CCCCCCCC/C=C\CCCCCCCCOC(=O)CN1CCNCC1.O=C(O)C(O)C(O)C(=O)O [Compound 9, Piperazin-1-yl-acetic acid octadec-(Z)-9-enyl ester bitartrate]
[4]
  reduction of inflammation in the DTH model: inhibit DTH Skin Reaction
EAE [5]; 100 mg/Kg administered orally, FIG. 9
  protection against EAE: could protect the rats against EAE
EAE [5]; 100 Mg/Kg per os
  % Sick rats: 100%
  % inhibition: 31.4%
  Mean Clinic Score: 1.93 ± 0.45
  Mean onset: 11.5

## CCCCCCCC/C=C\CCCCCCCCOC(=O)C(N)c1ccccc1.Cl (stereo not drawn) [Compound 11, α-Amino-α-phenyl-acetic acid octadec-(Z)-9-enyl ester HCl salt]
[4]
  reduction of inflammation in the DTH model: inhibit DTH Skin Reaction

## C[C@@H]1C[C@H]2[C@@H]3CCC4=CC(=O)C=C[C@]4(C)[C@@]3(F)[C@@H](O)C[C@]2(C)[C@@]1(O)C(=O)CO [dexamethazone, reference compound]
[4]
  reduction of inflammation in the DTH model: positive results in reducing inflammation

## CCOC(=O)CN1CCN(C)CC1.Cl [negative control, (4-Methyl-piperazin-1-yl)-acetic acid ethyl ester HCl, reference compound]
[4]
  reduction of inflammation in the DTH model: did not show any positive results

## glatiramer acetate [GA, reference compound]
[6]; GA activator conc. 2.5 (mg/mL), mice immunized with GA 75 μg/m, no Comp. 3
  IL-2 Secretion from 5 × 10^6 Spleen Cells: 47.9
[6]; GA activator conc. 25.0 (mg/mL), mice immunized with GA 75 μg/m, no Comp. 3
  IL-2 Secretion from 5 × 10^6 Spleen Cells: 124.3
[6]; activator Con A 2.5 (mg/mL), mice immunized with GA 75 μg/m, no Comp. 3
  IL-2 Secretion from 5 × 10^6 Spleen Cells: 419.6
[6]; activator conc. 0, mice immunized with GA 75 μg/m, no Comp. 3
  IL-2 Secretion from 5 × 10^6 Spleen Cells: UQL
